Entries after “also recorded” stand apart in the source; their conditions may differ. Read-outs that look alike come from different tables or passages of the source.
Legend:
[1] = Food intake and body weight after IP or ICV administration (FIG. 2B, 2C); assay type: in vivo; conditions: 10 and 40 μg ICV, 5 mg/kg IP, 10 day period
Description: The purpose of this example was to evaluate the in vivo distribution of the aminosterol Aminosterol 1436 following intraperitoneal administration (IP) and ICV administration, and to determine the impact the drug has on food intake and body weight when administered IP and ICV.
This experiment is relevant as the areas of the brain where the aminosterol Aminosterol 1436 localized upon administration are known to control feeding behavior and appetite.

[2] = In vivo brain distribution of radiolabeled Aminosterol 1436 after ICV and IV administration; parameters: species or system rat; conditions: 3H-labeled
Description: The purpose of this example was to evaluate the in vivo distribution of Aminosterol 1436 following intracerebroventricular (ICV) and intravenous (IV) administration to rats. ICV injection is an invasive injection technique of substances directly into the cerebrospinal fluid in cerebral ventricles to bypass the blood brain barrier. The results described below detail how aminosterols such as Aminosterol 1436 localize in the brain following in vivo administration, regardless of the route of administration.
Radiolabeled Aminosterol 1436 was injected into rats by two different forms of administration: ICV and IV administration.

[3] = CSF concentration after intranasal (IN) administration; assay type: in vivo, Sprague Dawley® (SD) rats
Description: (§1) The purpose of this example was to evaluate the in vivo distribution and function of aminosterols, such as Aminosterol 1436 and squalamine, following intranasal administration. This experiment relates to the amount of drug needed to obtain a therapeutic result, based on an IN route of administration. The results described below detail that aminosterols such as Aminosterol 1436 act at the level of the hypothalamus following in vivo administration, regardless of the route of administration.
(§2) Pharmacokinetic information for these tests can be found in the tables below.

[4] = Plasma pharmacokinetics after intranasal (IN) administration; assay type: in vivo, Sprague Dawley® (SD) rats
Description: as §1, §2

[5] = PK profile, IV bolus compared with IN administration (FIG. 9); assay type: in vivo; conditions: rat, plasma
Description: Thus, the amount of aminosterol in the bloodstream is too low to account for the observed pharmacological effect. This means that when administered IN, an aminosterol is having a pharmacological effect via a mechanism other than via plasma concentration of the drug.

[6] = Weight change after IP or IN administration (FIG. 8); assay type: in vivo, mice
Experimental: The purpose of this example was to evaluate and compare the impact on weight following administration of an aminosterol such as Aminosterol 1436 to mice via IP or IN.
Mice were administered: (i) intraperitoneally 1 mg/kg or 10 mg/kg of Aminosterol 1436, (ii) intranasally 0.4 mg/kg of Aminosterol 1436, or (iii) a saline control administered IN. Weight of the mice was then measured for 10 days post-administration.

[7] = Sprague-Dawley, rat, inhaled or intranasal, plasma, 0.5 mg/kg IN dose, mean
[8] = plasma, 0.5 mg/kg IN dose, mean (Table 4)

## CC(C)[C@@H](CC[C@@H](C)[C@H]1CC[C@H]2[C@@H]3[C@H](O)C[C@H]4C[C@@H](NCCCNCCCCNCCCN)CC[C@]4(C)[C@H]3CC[C@]12C)OS(=O)(=O)O [Aminosterol 1436]
[1]
  Effect on food intake: significant impact on food intake
[2]; ICV administration
  Site of localization in brain: localized to the same regions of the brain
[2]; IV administration
  Site of localization in brain: localized in the hypothalamus
[3]; Sprague-Dawley, rat, in vivo, 0.5 mg/kg
  Drug found in CSF: No squalamine lactate or Aminosterol 1436 was found in CSF
[4]; IN versus peripherally injected
  Blood levels after intranasal administration relative to peripherally injected: 10 times
[4]; [7]
  AUC(0-inf): 17900 ng·h/mL
  AUC(0-t): 9370 ng·h/mL
  Cmax: 1680 ng/mL
  half-life: 7.59 h
[4]; Sprague-Dawley, rat, inhaled or intranasal, plasma, 0.5 mg/kg IN dose, mean, read-out: MRTInf_obs
  MRT inf: 11.1 h
[4]; Sprague-Dawley, rat, inhaled or intranasal, plasma, 0.5 mg/kg IN dose, mean, read-out: Tmax
  Tmax: 4 h
[5]; other: intranasal, IN 0.5 mg/kg compared with IV bolus 2 mg/kg
  bioavailability: ~20%
[5]; IV bolus 2 mg/kg, read-out: PK profile value after IV bolus injection (AUC)
  AUC: 190000 ng·h/mL
[6]; 0.4 mg/kg IN, 10 days post-administration
  Decrease in weight, comparison in words: comparable to 10 mg/kg of intraperitoneally administered Aminosterol 1436
[6]; 0.4 mg/kg intranasal (IN)
  Decrease in weight: about 5%
[6]; 1 mg/kg IP, compared with IN saline control
  Effect on weight (anti-feeding effect): compared similarly to the intranasally administered saline control; also recorded: no anti-feeding effect
[6]; 10 mg/kg IP
  Decrease in weight: about 19%

## CC(C)[C@@H](CC[C@@H](C)[C@H]1CC[C@H]2[C@@H]3[C@H](O)C[C@H]4C[C@@H](NCCCNCCCCN)CC[C@]4(C)[C@H]3CC[C@]12C)OS(=O)(=O)O.C[C@H](O)C(=O)O.O [Squalamine Lactate]
[3]; CSF, 0.5 mg/kg IN
  Drug found in CSF: No squalamine lactate or Aminosterol 1436 was found in CSF
[4]; [8]
  AUCInf: 7863 ng·h/mL
  AUClast: 5296 ng·h/mL
  MRTInf_obs: 7.12 H
  T1/2: 4.55 H
  Tmax: 1.00 H
